For the assay, the system named is cartilage degradation. The assay can be described thus: Acute Cartilage Degradation Rat Model. It is filed as in vivo. Particulars: rats, after compound administration. An excerpt: A novel in vivo model of acute cartilage degradation in rats has been characterized as a method to determine the proteoglycan content in the synovial fluid after the induction of cartilage degradation.

Each structure is given as a SMILES string.

`COc1ccc2c(c1)c(CC(=O)O)c(C)n2C(=O)c1ccc(Cl)cc1` [Indomethacin]: the “ability to inhibit the demonstration of cartilage degradation, as measured by increased proteoglycan content in the synovial fluid” value is “inactive”.

These data come from patent publication US6455522B1, “Cyclic sulfonamide derivatives as metalloproteinase inhibitors” (Bristol-Myers Squibb Pharma Company, priority 1998, dated 2002).
